Measured values reported in paper PMC4574351, “Tubulin cofactors and Arl2 are cage-like chaperones that regulate the soluble αβ-tubulin pool for microtubule dynamics” (eLife, 2015).
Read-outs that look alike come from different tables or passages of the source.

Legend:
Assay in all cases: malachite green phosphate release, Michaelis-Menten fit
Assay type in all cases: biochemical
[1] = target: T1, TBC-DEG:αβ-tubulin:TBCC ternary complex (Saccharomyces cerevisiae, UniProt P39110); settings: 1 μM each TBC-DEG, buffer and temperature same, read-out: Km (GTP)
T1 construct: gene CIN4; recombinant yeast TBC-DEG and full-length TBCC with equimolar double-cycled porcine brain tubulin dimer; tubulin may contribute to GTP turnover; with Protein CIN1; Protein PAC2; Tubulin-folding cofactor C; Tubulin alpha chain (Sus scrofa brain, isotype mixture); Tubulin beta chain (Sus scrofa brain, isotype mixture)
Excerpt: (§1) malachite green phosphate release, Michaelis-Menten fit on TBC-DEG:αβ-tubulin:TBCC ternary complex

[2] = target: T2, TBC-DEG:αβ-tubulin:TBCC ternary complex (Saccharomyces cerevisiae, UniProt P39110, Q73L); settings: 1 μM each TBC-DEG-Q73L, buffer and temperature same, text prints 387 μM, residual turnover ascribed to tubulin, read-out: Km (GTP)
T2 construct: gene CIN4; recombinant yeast TBC-DEG and full-length TBCC with equimolar double-cycled porcine brain tubulin dimer; tubulin may contribute to GTP turnover; with Protein CIN1; Protein PAC2; Tubulin-folding cofactor C; Tubulin alpha chain (Sus scrofa brain, isotype mixture); Tubulin beta chain (Sus scrofa brain, isotype mixture)
T2 sequence (P39110 whole entry Q73L, one chain of several): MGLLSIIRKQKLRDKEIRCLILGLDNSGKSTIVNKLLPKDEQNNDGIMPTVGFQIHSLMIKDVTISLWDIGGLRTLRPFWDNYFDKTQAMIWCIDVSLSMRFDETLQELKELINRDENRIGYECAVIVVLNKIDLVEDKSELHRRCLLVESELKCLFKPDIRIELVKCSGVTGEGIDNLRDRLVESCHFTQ
T2 sequence (P46670 whole entry partner, one chain of several): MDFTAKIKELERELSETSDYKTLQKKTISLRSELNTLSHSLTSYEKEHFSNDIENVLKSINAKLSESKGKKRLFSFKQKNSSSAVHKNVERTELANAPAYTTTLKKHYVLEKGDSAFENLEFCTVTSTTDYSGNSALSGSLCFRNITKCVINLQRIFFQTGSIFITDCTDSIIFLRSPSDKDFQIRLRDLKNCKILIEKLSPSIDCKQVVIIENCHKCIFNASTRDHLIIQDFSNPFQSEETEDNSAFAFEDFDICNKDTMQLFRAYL
T2 sequence (P02550 whole entry partner, one chain of several): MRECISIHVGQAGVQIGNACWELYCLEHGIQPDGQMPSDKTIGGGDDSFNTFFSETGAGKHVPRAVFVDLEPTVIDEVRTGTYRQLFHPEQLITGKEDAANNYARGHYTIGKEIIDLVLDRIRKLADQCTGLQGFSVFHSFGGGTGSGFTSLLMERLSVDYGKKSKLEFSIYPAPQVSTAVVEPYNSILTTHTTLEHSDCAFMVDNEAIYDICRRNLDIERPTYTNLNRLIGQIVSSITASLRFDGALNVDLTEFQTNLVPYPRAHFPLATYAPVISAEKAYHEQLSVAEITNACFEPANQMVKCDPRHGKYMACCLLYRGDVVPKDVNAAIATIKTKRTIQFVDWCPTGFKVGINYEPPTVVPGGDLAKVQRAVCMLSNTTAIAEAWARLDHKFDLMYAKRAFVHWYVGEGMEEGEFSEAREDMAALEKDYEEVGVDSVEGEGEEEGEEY
T2 sequence (P02554 whole entry partner, one chain of several): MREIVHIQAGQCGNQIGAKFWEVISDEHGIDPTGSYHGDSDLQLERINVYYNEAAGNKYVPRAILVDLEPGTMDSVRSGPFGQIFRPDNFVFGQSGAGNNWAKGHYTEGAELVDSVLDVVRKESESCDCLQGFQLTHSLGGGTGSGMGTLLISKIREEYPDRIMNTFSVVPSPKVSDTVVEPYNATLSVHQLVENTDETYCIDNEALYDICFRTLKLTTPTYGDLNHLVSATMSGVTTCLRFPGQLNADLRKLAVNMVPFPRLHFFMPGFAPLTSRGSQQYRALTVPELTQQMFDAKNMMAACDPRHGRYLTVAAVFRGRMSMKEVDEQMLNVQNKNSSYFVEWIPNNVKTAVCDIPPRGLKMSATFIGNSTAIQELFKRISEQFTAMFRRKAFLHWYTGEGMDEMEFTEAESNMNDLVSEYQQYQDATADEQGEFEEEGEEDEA
Excerpt: as §1

TBC-DEG (TBCD-TBCE-Arl2) = target: T3, TBC-DEG (TBCD-TBCE-Arl2) (Saccharomyces cerevisiae, UniProt P39110); settings: 1 μM TBC-DEG alone; 0-800 μM GTP; 50 mM HEPES, 100 mM KCl; 30 °C, 90 min
T3 construct: gene CIN4; full-length subunits co-expressed in E. coli (polycistronic), 6xHis N-terminal tag; 1:1:1 heterotrimer, ~205 kDa; with Protein CIN1; Protein PAC2
T3 sequence (P39110 1-191): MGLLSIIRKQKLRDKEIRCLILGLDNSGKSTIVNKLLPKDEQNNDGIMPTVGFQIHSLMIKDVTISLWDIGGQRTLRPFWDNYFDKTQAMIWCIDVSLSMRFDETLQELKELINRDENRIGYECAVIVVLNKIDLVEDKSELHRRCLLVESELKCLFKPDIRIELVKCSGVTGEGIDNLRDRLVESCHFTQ
T3 sequence (P40987 1-1014 partner): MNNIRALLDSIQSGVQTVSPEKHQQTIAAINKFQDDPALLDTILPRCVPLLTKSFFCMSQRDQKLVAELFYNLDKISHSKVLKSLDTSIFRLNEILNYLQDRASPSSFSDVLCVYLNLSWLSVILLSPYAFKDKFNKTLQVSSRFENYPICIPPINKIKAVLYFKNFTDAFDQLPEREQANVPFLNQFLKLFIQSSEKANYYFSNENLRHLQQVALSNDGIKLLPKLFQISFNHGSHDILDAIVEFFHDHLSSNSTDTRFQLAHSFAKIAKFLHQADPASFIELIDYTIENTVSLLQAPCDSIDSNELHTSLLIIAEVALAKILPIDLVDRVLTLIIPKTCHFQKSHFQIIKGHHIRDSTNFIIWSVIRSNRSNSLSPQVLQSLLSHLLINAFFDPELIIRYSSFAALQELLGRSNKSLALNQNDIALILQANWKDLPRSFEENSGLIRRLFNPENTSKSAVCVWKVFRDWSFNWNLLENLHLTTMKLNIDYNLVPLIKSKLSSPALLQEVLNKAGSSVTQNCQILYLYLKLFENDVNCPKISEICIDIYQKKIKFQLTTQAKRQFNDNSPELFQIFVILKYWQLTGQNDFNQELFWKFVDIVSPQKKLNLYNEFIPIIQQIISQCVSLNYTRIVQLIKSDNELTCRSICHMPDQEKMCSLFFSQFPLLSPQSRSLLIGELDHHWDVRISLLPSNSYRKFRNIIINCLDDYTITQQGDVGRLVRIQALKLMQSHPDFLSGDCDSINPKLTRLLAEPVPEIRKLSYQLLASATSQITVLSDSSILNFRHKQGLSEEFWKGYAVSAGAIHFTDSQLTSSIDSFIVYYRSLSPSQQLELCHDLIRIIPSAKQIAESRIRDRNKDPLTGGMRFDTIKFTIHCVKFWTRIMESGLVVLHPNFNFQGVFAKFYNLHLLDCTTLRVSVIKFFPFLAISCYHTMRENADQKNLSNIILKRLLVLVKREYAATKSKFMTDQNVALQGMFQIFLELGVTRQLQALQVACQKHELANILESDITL
T3 sequence (P39937 1-518 partner): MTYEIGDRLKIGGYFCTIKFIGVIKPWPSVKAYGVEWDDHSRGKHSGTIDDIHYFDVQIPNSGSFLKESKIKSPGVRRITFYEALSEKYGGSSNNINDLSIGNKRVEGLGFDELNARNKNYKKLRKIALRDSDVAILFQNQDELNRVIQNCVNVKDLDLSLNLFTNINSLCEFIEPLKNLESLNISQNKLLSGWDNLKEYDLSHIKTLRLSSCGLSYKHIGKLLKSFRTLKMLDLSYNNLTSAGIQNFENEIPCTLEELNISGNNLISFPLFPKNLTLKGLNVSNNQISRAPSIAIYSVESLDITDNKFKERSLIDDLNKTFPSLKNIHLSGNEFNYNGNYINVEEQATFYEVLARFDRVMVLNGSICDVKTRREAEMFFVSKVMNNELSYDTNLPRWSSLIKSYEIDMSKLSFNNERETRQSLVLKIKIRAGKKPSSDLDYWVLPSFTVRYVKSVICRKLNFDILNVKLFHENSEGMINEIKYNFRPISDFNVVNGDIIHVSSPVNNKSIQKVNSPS
Excerpt: malachite green phosphate release, Michaelis-Menten fit on TBC-DEG (TBCD-TBCE-Arl2)

TBC-DEG:αβ-tubulin = target: T4, TBC-DEG:αβ-tubulin (Saccharomyces cerevisiae, UniProt P39110); settings: 1 μM TBC-DEG, 1 μM αβ-tubulin; buffer and temperature same; GTPase site may be Arl2 or tubulin; read-out: Km (GTP)
T4 construct: gene CIN4; recombinant yeast TBC-DEG with equimolar double-cycled porcine brain tubulin dimer; tubulin may contribute to GTP turnover; with Protein CIN1; Protein PAC2; Tubulin alpha chain (Sus scrofa brain, isotype mixture); Tubulin beta chain (Sus scrofa brain, isotype mixture)
T4 sequence (P02550 whole entry partner, one chain of several): as the sequence (P02550 whole entry partner, one chain of several) above
T4 sequence (P02554 whole entry partner, one chain of several): as the sequence (P02554 whole entry partner, one chain of several) above
Excerpt: malachite green phosphate release, Michaelis-Menten fit on TBC-DEG:αβ-tubulin

[3] = target: T5, TBC-DEG:αβ-tubulin:TBCC-Cterm (TBCC-C) (Saccharomyces cerevisiae, UniProt P39110); settings: 1 μM each TBC-DEG, buffer and temperature same, read-out: Km (GTP)
T5 construct: gene CIN4; as ternary complex but TBCC beta-helix domain only (residues 100-267, spectrin domain removed); with Protein CIN1; Protein PAC2; Tubulin-folding cofactor C; Tubulin alpha chain (Sus scrofa brain, isotype mixture); Tubulin beta chain (Sus scrofa brain, isotype mixture)
T5 sequence (P46670 100-267 partner, one chain of several): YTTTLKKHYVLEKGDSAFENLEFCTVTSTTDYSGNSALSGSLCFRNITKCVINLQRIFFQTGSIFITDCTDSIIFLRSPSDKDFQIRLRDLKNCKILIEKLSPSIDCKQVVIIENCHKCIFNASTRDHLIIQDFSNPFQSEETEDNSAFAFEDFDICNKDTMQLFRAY
T5 sequence (P02550 whole entry partner, one chain of several, the tested form may be a part): as the sequence (P02550 whole entry partner, one chain of several) above
T5 sequence (P02554 whole entry partner, one chain of several, the tested form may be a part): as the sequence (P02554 whole entry partner, one chain of several) above
Excerpt: malachite green phosphate release, Michaelis-Menten fit on TBC-DEG:αβ-tubulin:TBCC-Cterm (TBCC-C)

TBC-DEG:TBCC = target: T6, TBC-DEG:TBCC (Saccharomyces cerevisiae, UniProt P39110); settings: 1 μM TBC-DEG, 1 μM TBCC; buffer and temperature same; read-out: Km (GTP)
T6 construct: gene CIN4; TBC-DEG mixed with equimolar full-length TBCC (GAP), all recombinant from E. coli; with Protein CIN1; Protein PAC2; Tubulin-folding cofactor C
T6 sequence (P46670 whole entry partner, one chain of several): as the sequence (P46670 whole entry partner, one chain of several) above
Excerpt: malachite green phosphate release, Michaelis-Menten fit on TBC-DEG:TBCC

Km ([1]; TBCC-R186A, arginine finger mutant): 40 ± 10 µM
Km ([1]; TBCC-Δ233-245, αβ-tubulin): 35 ± 8 µM
Km ([1]; Arl2 with minor tubulin contribution): 99 ± 10 µM
Km [2]: 371 ± 20 µM
Km (TBC-DEG (TBCD-TBCE-Arl2)): 400 ± 30 µM
Km (TBC-DEG:αβ-tubulin): 69 ± 12 µM
Km [3]: 56 ± 7 µM
Km (TBC-DEG:TBCC): 94 ± 10 µM
SMILES: Nc1nc2c(ncn2[C@@H]2O[C@H](COP(=O)(O)OP(=O)(O)OP(=O)(O)O)[C@@H](O)[C@H]2O)c(=O)[nH]1 [GTP]
